{"source": "patent US9771334B2", "about": "“Triketone compound and preparation method and use thereof” (SHANDONG CYNDA CHEMICAL CO., LTD., priority 2013, dated 2017)"}
{"system": "abutilon theophrasti", "assay": "Herbicidal activity, pot culture method (primary and secondary screening test)", "type": "in vivo", "conditions": "primary screening, pot culture, 150 g/ha, sprayed at 3-leaf stage, result 15 days later", "procedure,_shortened": "(§1)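 Weeds were sown in 1:2 garden soil:seedling matrix and sprayed at the 3-leaf stage by automatic spray tower. Compounds were dissolved in DMF and diluted in water to 0.2 g/L, dosed at 150 g/ha; the secondary screen used a reduced dose. Inhibition ratio (%) was assessed after 15 days in the greenhouse.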", "units": {"herbicidal activity inhibition ratio (%), Abutilon theophrasti": "%"}}
{"smiles": "CC1CC(=O)C(C(=O)c2ccc3c(c2)c(=O)n(-c2ccc(Br)cc2)c(=O)n3C)=C(O)C1", "note": "(stereo not drawn) [Compound 90]", "herbicidal activity inhibition ratio (%), Abutilon theophrasti": 92.5}
{"smiles": "Cc1ccccc1-n1c(=O)c2cc(C(=O)C3=C(O)CC(C)(C)CC3=O)ccc2n(Cc2ccccc2F)c1=O", "note": "[Compound 85]", "herbicidal activity inhibition ratio (%), Abutilon theophrasti": 0}
{"smiles": "COc1cccc(Cn2c(=O)n(-c3ccccc3C)c(=O)c3cc(C(=O)C4=C(O)CCCC4=O)ccc32)c1", "note": "[Compound 84]", "herbicidal activity inhibition ratio (%), Abutilon theophrasti": 0}
{"smiles": "COc1ccccc1-n1c(=O)c2c(C)c(C(=O)C3=C(O)CCCC3=O)ccc2n(C)c1=O", "note": "[Compound 88]", "herbicidal activity inhibition ratio (%), Abutilon theophrasti": 100}
{"system": "amaranthus retroflexus", "assay": "Herbicidal activity, pot culture method (primary and secondary screening test)", "type": "in vivo", "conditions": "primary screening, pot culture, 150 g/ha, sprayed at 3-leaf stage, result 15 days later", "procedure,_shortened": "as §1", "units": {"herbicidal activity inhibition ratio (%), Amaranthus retroflexus": "%"}}
{"smiles": "CC1CC(=O)C(C(=O)c2ccc3c(c2)c(=O)n(-c2ccc(Br)cc2)c(=O)n3C)=C(O)C1", "note": "(stereo not drawn) [Compound 90]", "herbicidal activity inhibition ratio (%), Amaranthus retroflexus": 20}
{"smiles": "Cc1ccccc1-n1c(=O)c2cc(C(=O)C3=C(O)CC(C)(C)CC3=O)ccc2n(Cc2ccccc2F)c1=O", "note": "[Compound 85]", "herbicidal activity inhibition ratio (%), Amaranthus retroflexus": 20}
{"smiles": "COc1cccc(Cn2c(=O)n(-c3ccccc3C)c(=O)c3cc(C(=O)C4=C(O)CCCC4=O)ccc32)c1", "note": "[Compound 84]", "herbicidal activity inhibition ratio (%), Amaranthus retroflexus": 0}
{"smiles": "COc1ccccc1-n1c(=O)c2c(C)c(C(=O)C3=C(O)CCCC3=O)ccc2n(C)c1=O", "note": "[Compound 88]", "herbicidal activity inhibition ratio (%), Amaranthus retroflexus": 100}
{"system": "digitaria sanguinalis", "assay": "Herbicidal activity, pot culture method (primary and secondary screening test)", "type": "in vivo", "conditions": "primary screening, pot culture, 150 g/ha, sprayed at 3-leaf stage, result 15 days later", "procedure,_shortened": "as §1", "units": {"herbicidal activity inhibition ratio (%), Digitaria sanguinalis": "%"}}
{"smiles": "CC1CC(=O)C(C(=O)c2ccc3c(c2)c(=O)n(-c2ccc(Br)cc2)c(=O)n3C)=C(O)C1", "note": "(stereo not drawn) [Compound 90]", "herbicidal activity inhibition ratio (%), Digitaria sanguinalis": 93}
{"smiles": "Cc1ccccc1-n1c(=O)c2cc(C(=O)C3=C(O)CC(C)(C)CC3=O)ccc2n(Cc2ccccc2F)c1=O", "note": "[Compound 85]", "herbicidal activity inhibition ratio (%), Digitaria sanguinalis": 0}
{"smiles": "COc1cccc(Cn2c(=O)n(-c3ccccc3C)c(=O)c3cc(C(=O)C4=C(O)CCCC4=O)ccc32)c1", "note": "[Compound 84]", "herbicidal activity inhibition ratio (%), Digitaria sanguinalis": 25}
{"smiles": "COc1ccccc1-n1c(=O)c2c(C)c(C(=O)C3=C(O)CCCC3=O)ccc2n(C)c1=O", "note": "[Compound 88]", "herbicidal activity inhibition ratio (%), Digitaria sanguinalis": 100}
{"system": "echinochloa crusgalli", "assay": "Herbicidal activity, pot culture method (primary and secondary screening test)", "type": "in vivo", "conditions": "primary screening, pot culture, 150 g/ha, sprayed at 3-leaf stage, result 15 days later", "procedure,_shortened": "as §1", "units": {"herbicidal activity inhibition ratio (%), Echinochloa crusgalli": "%"}}
{"smiles": "CC1CC(=O)C(C(=O)c2ccc3c(c2)c(=O)n(-c2ccc(Br)cc2)c(=O)n3C)=C(O)C1", "note": "(stereo not drawn) [Compound 90]", "herbicidal activity inhibition ratio (%), Echinochloa crusgalli": 90}
{"smiles": "Cc1ccccc1-n1c(=O)c2cc(C(=O)C3=C(O)CC(C)(C)CC3=O)ccc2n(Cc2ccccc2F)c1=O", "note": "[Compound 85]", "herbicidal activity inhibition ratio (%), Echinochloa crusgalli": 20}
{"smiles": "COc1cccc(Cn2c(=O)n(-c3ccccc3C)c(=O)c3cc(C(=O)C4=C(O)CCCC4=O)ccc32)c1", "note": "[Compound 84]", "herbicidal activity inhibition ratio (%), Echinochloa crusgalli": 50}
{"smiles": "COc1ccccc1-n1c(=O)c2c(C)c(C(=O)C3=C(O)CCCC3=O)ccc2n(C)c1=O", "note": "[Compound 88]", "herbicidal activity inhibition ratio (%), Echinochloa crusgalli": 100}
{"system": "eclipta prostrata", "assay": "Herbicidal activity, pot culture method (primary and secondary screening test)", "type": "in vivo", "conditions": "primary screening, pot culture, 150 g/ha, sprayed at 3-leaf stage, result 15 days later", "procedure,_shortened": "as §1", "units": {"herbicidal activity inhibition ratio (%), Eclipta prostrata": "%"}}
{"smiles": "CC1CC(=O)C(C(=O)c2ccc3c(c2)c(=O)n(-c2ccc(Br)cc2)c(=O)n3C)=C(O)C1", "note": "(stereo not drawn) [Compound 90]", "herbicidal activity inhibition ratio (%), Eclipta prostrata": 83}
{"smiles": "Cc1ccccc1-n1c(=O)c2cc(C(=O)C3=C(O)CC(C)(C)CC3=O)ccc2n(Cc2ccccc2F)c1=O", "note": "[Compound 85]", "herbicidal activity inhibition ratio (%), Eclipta prostrata": 0}
{"smiles": "COc1cccc(Cn2c(=O)n(-c3ccccc3C)c(=O)c3cc(C(=O)C4=C(O)CCCC4=O)ccc32)c1", "note": "[Compound 84]", "herbicidal activity inhibition ratio (%), Eclipta prostrata": 80}
{"smiles": "COc1ccccc1-n1c(=O)c2c(C)c(C(=O)C3=C(O)CCCC3=O)ccc2n(C)c1=O", "note": "[Compound 88]", "herbicidal activity inhibition ratio (%), Eclipta prostrata": 100}
{"system": "setaria viridis", "assay": "Herbicidal activity, pot culture method (primary and secondary screening test)", "type": "in vivo", "conditions": "primary screening, pot culture, 150 g/ha, sprayed at 3-leaf stage, result 15 days later", "procedure,_shortened": "as §1", "units": {"herbicidal activity inhibition ratio (%), Setaria viridis": "%"}}
{"smiles": "CC1CC(=O)C(C(=O)c2ccc3c(c2)c(=O)n(-c2ccc(Br)cc2)c(=O)n3C)=C(O)C1", "note": "(stereo not drawn) [Compound 90]", "herbicidal activity inhibition ratio (%), Setaria viridis": 85}
{"smiles": "Cc1ccccc1-n1c(=O)c2cc(C(=O)C3=C(O)CC(C)(C)CC3=O)ccc2n(Cc2ccccc2F)c1=O", "note": "[Compound 85]", "herbicidal activity inhibition ratio (%), Setaria viridis": 10}
{"smiles": "COc1cccc(Cn2c(=O)n(-c3ccccc3C)c(=O)c3cc(C(=O)C4=C(O)CCCC4=O)ccc32)c1", "note": "[Compound 84]", "herbicidal activity inhibition ratio (%), Setaria viridis": 10}
{"smiles": "COc1ccccc1-n1c(=O)c2c(C)c(C(=O)C3=C(O)CCCC3=O)ccc2n(C)c1=O", "note": "[Compound 88]", "herbicidal activity inhibition ratio (%), Setaria viridis": 100}
